Assay results published in ChEMBL document CHEMBL2163249, “Exploration of natural compounds as sources of new bifunctional scaffolds targeting cholinesterases and beta amyloid aggregation: the case of chelerythrine” (Bioorg Med Chem, 2012).
pIC50: −log10 of the molar value. Where a name gives a salt, the structure may show the parent alone.

Assays:
Cholinesterase [1] = target: Cholinesterase (Homo sapiens, UniProt P06276); experiment: Inhibition of human BChE by Ellman's method; details: for pIC50: read-out: IC50
Cholinesterase [2] = target: Cholinesterase (Equus caballus, UniProt P81908); experiment: Inhibition of horse BChE by Ellman's method; details: for pIC50: read-out: IC50
Acetylcholinesterase = Acetylcholinesterase (Electrophorus electricus, UniProt O42275); experiment: Inhibition of electric eel AChE by Ellman's method; details: for pIC50: read-out: IC50
[3] = target: Cholinesterase (Equus caballus) (UniProt P81908); details: at 2 mg/mL
Description: Inhibition of horse BChE at 2 mg/ml by Ellman's method

[4] = target: Acetylcholinesterase (Electrophorus electricus) (UniProt O42275); details: at 2 mg/mL
Chain of Acetylcholinesterase (Electrophorus electricus) (O42275 24-633 limits assumed): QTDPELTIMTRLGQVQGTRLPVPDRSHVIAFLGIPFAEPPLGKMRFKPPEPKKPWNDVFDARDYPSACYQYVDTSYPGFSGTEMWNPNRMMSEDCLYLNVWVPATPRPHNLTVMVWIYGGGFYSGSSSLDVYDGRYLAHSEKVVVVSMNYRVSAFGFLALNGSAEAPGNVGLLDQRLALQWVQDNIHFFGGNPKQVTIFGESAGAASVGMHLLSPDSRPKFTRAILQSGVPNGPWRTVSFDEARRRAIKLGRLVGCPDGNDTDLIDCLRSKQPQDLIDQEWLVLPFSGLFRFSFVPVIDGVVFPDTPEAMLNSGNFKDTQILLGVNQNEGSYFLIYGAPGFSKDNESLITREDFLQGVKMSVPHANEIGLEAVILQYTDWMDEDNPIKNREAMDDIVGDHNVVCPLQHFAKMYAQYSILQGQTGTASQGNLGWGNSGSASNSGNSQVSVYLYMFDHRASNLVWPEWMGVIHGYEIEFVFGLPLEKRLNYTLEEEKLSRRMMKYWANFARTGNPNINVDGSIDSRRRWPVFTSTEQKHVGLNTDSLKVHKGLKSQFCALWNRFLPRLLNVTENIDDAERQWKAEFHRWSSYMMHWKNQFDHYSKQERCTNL
Description: Inhibition of electric eel AChE at 2 mg/ml by Ellman's method

Chain of Acetylcholinesterase (O42275 whole entry): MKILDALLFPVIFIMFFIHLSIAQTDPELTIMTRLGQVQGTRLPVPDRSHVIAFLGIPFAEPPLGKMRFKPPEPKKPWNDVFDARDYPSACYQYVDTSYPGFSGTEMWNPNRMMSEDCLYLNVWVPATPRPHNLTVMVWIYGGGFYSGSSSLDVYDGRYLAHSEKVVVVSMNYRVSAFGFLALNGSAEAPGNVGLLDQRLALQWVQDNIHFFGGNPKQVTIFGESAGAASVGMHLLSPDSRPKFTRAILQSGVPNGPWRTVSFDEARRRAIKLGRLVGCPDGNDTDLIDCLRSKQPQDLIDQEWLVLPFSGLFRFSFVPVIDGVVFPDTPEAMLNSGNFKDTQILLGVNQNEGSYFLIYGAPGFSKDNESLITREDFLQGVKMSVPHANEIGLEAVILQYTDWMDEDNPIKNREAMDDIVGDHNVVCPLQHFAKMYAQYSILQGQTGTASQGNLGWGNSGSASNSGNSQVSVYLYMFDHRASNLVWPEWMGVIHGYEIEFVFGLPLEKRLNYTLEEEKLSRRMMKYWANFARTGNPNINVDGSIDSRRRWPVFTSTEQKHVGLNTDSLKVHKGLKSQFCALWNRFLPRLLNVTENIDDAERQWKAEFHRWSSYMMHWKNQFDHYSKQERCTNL
Chain of Cholinesterase (Equus caballus) (P81908 whole entry): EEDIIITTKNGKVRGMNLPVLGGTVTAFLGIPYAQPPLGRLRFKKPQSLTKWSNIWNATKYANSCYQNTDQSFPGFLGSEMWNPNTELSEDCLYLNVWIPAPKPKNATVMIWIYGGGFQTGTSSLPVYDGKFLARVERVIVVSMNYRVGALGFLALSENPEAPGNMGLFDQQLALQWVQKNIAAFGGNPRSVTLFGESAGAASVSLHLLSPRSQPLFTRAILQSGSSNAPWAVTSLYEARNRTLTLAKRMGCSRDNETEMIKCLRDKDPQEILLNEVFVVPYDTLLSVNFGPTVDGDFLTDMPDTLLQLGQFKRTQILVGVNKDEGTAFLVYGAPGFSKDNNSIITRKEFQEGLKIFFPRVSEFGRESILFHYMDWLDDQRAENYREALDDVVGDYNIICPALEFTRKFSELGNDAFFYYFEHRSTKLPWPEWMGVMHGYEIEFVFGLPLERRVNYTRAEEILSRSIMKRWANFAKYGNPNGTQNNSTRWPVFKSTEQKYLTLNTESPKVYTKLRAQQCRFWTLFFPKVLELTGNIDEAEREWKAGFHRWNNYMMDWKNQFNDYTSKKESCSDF
Chain of Cholinesterase (Equus caballus, UniProt P81908) (P81908 whole entry): as above
Chain of Cholinesterase (Homo sapiens, UniProt P06276) (P06276 whole entry): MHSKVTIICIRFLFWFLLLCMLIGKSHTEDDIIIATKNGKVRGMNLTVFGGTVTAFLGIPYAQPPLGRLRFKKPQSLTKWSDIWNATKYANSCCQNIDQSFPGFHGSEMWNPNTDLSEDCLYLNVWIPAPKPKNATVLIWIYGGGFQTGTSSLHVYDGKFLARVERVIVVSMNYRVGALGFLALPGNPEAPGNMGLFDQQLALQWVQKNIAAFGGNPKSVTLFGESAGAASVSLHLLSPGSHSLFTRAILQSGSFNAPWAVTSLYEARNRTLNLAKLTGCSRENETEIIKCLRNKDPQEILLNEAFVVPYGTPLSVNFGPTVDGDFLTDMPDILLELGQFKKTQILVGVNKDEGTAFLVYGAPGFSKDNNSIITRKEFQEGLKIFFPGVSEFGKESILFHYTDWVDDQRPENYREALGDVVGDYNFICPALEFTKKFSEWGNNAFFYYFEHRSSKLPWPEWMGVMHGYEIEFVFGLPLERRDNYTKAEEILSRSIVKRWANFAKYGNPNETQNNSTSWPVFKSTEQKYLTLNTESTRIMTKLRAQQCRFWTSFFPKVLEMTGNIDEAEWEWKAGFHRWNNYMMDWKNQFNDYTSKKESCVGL

SMILES: C=C[C@H]1C[N@@]2CC[C@H]1C[C@@H]2[C@@H](O)c1ccnc2ccc(OC)cc12 [QUINIDINE]
- pIC50 (Cholinesterase [1]): 5.91
- pIC50 (Cholinesterase [2]): 5.13

SMILES: C[C@@H]1CC[C@H]2[C@H](C)[C@H]3CC[C@@]4(O)[C@@H]5CC(=O)[C@H]6CC(=O)CC[C@]6(C)[C@H]5C[C@H]4[C@@H]3CN2C1 [SEVEDINDIONE]
- pIC50 (Cholinesterase [1]): 6.57
- IC50 (Acetylcholinesterase): Not Active
- pIC50 (Cholinesterase [2]): 5.43
- inhibition [3]: 17%

SMILES: O[C@H]1CCN2Cc3ccccc3N=C12 [VASICINE]
- pIC50 (Cholinesterase [1]): 5.50
- IC50 (Acetylcholinesterase): Not Active
- pIC50 (Cholinesterase [2]): 5.60
- inhibition [3]: 85.7%

SMILES: C=C[C@H]1CN2CC[C@H]1C[C@@H]2[C@@H](O)c1ccnc2ccc(OC)cc12 [QUINIDINE]
- IC50 (Acetylcholinesterase): Not Active
- inhibition [4]: 20.2%
- inhibition [3]: 66%

SMILES: OC1c2ccccc2N=C2CCCN21 (configuration not stated) [PEGANOLE]
- pIC50 (Cholinesterase [1]): < 4.70
- IC50 (Acetylcholinesterase): Not Active
- pIC50 (Cholinesterase [2]): 4.94
- inhibition [3]: 65.7%

SMILES: C[C@@H]1OC(=O)[C@H]2C[C@H]3CCCC[C@@H]3[C@@H](/C=C/[C@H]3CCC[C@H](C)N3C)[C@@H]12 [HIMBACINE]
- IC50 (Cholinesterase [1]): Not Active
- pIC50 (Acetylcholinesterase): 4.64
- inhibition [4]: 57%
- IC50 (Cholinesterase [2]): Not Active

SMILES: CC[C@H]1CN2CCc3c([nH]c4ccccc34)[C@H]2C[C@@H]1/C(=C\OC)C(=O)OC [HIRSUTINE]
- pIC50 (Cholinesterase [1]): 5.71
- IC50 (Acetylcholinesterase): Not Active
- pIC50 (Cholinesterase [2]): 5.30
- inhibition [3]: 87.1%

SMILES: COc1cc2c3cc1Oc1c(OC)c(OC)cc4c1[C@@H](Cc1ccc(OC(=O)c5ccc([N+](=O)[O-])cc5)c(c1)Oc1ccc(cc1)C[C@@H]3N(C)CC2)N(C)CC4 [E6 BERBAMINE]
- pIC50 (Cholinesterase [1]): 5.67
- IC50 (Acetylcholinesterase): Not Active
- pIC50 (Cholinesterase [2]): 5.38
- inhibition [3]: 0.47%

SMILES: c1ccc2c(c1)CN1CCCC1=N2 [DESOXYPEGANINE HYDROCHLORIDE HYDRATE]
- pIC50 (Acetylcholinesterase): 4.93
- inhibition [4]: 70.6%
- pIC50 (Cholinesterase [2]): 4.92
- inhibition [3]: 94.8%

SMILES: COc1c(C)c2c(c(O)c1C/C=C(\C)CCC(=O)O)C(=O)OC2
- inhibition [4]: -6.25%
- inhibition [3]: -7.04%

SMILES: CN1[C@H]2C[C@H](OC(=O)[C@H](CO)c3ccccc3)C[C@@H]1[C@@H](O)C2
- inhibition [4]: 9.43%
- inhibition [3]: 8.08%

SMILES: COc1cc(-c2oc3cc(O)cc(O)c3c(=O)c2OC2O[C@H](CO)[C@@H](O)[C@H](O)[C@H]2O)cc(OC)c1O (some centres not stated)
- inhibition [4]: 3.25%
- inhibition [3]: 2.12%

SMILES: C=C[C@H]1CN2CC[C@H]1C[C@H]2[C@H](O)c1ccnc2ccccc12
- inhibition [4]: 3.63%
- inhibition [3]: -0.03%

SMILES: CC[C@@H](C)[C@@H](O)[C@H](C)C(=O)[C@H](C)/C=C(\C)C[C@H](C)[C@@H]1OC(=O)[C@H]1CC
- inhibition [4]: 2.88%
- inhibition [3]: 99.8%

SMILES: C[C@@]12CCc3occc3[C@H]1CC[C@]13CC(=O)[C@H](CC[C@H]12)C3
- inhibition [4]: -5.73%
- inhibition [3]: -0.09%

SMILES: COc1ccc2cc1Oc1ccc(cc1)C[C@H]1c3cc(c(OC)cc3CCN1C)Oc1c(OC)c(OC)c(OC)c3c1[C@H](C2)N(C)CC3
- inhibition [4]: 23.4%
- inhibition [3]: -7.66%

SMILES: COC1=C[C@@H](C)[C@@H]2C[C@H]3OC(=O)C[C@H]4C(C)=C(OC)C(=O)[C@H]([C@@]2(C)C1=O)[C@@]34C
- inhibition [4]: 24.7%
- inhibition [3]: 4.69%

SMILES: Oc1cc(O)c2c(c1)O[C@H](c1ccc(O)c(O)c1)[C@@H](O)C2
- inhibition [4]: 7.03%
- inhibition [3]: -5.96%

SMILES: CN1C(=O)C[C@H](C(=O)O)[C@H]1c1cccnc1 (relative stereo)
- inhibition [4]: -2.93%
- inhibition [3]: -4.39%

SMILES: CC(=O)OC[C@@]1(O)C[C@@]23CC[C@@H]4c5ccoc5C=C[C@@]4(C)[C@@H]2CC[C@@H]1C3
- inhibition [4]: 14.1%
- inhibition [3]: 1.7%

SMILES: COc1ccc([C@@H]2CC(=O)c3c(O)cc(O)cc3O2)cc1O
- inhibition [4]: -4.02%
- inhibition [3]: -8.75%

SMILES: C[C@@H]1O[C@@H](Oc2c(-c3ccc(O)c(O)c3)oc3cc(O)cc(O)c3c2=O)[C@H](O)[C@H](O)[C@H]1O
- inhibition [4]: 0.25%
- inhibition [3]: -6.56%

SMILES: O=c1cc(-c2ccc(O)cc2)oc2cc(O)cc(O)c12
- inhibition [4]: 18.4%
- inhibition [3]: 4.5%

SMILES: CC(=O)C1=C(O)C=C2Oc3c(C(C)=O)c(O)c(C)c(O)c3[C@@]2(C)C1=O
- inhibition [4]: 2.06%
- inhibition [3]: 4.28%

SMILES: C[C@@H]1CC[C@]2(NC1)O[C@H]1C[C@H]3[C@@H]4CC=C5C[C@@H](O)CC[C@]5(C)[C@H]4CC[C@]3(C)[C@H]1[C@@H]2C
- inhibition [4]: 1.63%
- inhibition [3]: 53.7%

SMILES: CN1CCc2cc3c(cc2[C@H]1[C@@H]1OC(=O)c2c1ccc1c2OCO1)OCO3
- inhibition [4]: 20.7%
- inhibition [3]: 0.63%

SMILES: O=c1oc2cc(O)ccc2c2oc3cc(O)ccc3c12
- inhibition [4]: 3.18%
- inhibition [3]: 9.06%

SMILES: C=C(C)[C@@H]1CC[C@]2(CO)CC[C@]3(C)[C@H](CC[C@@H]4[C@@]5(C)CC[C@H](O)C(C)(C)[C@@H]5CC[C@]43C)[C@@H]12
- inhibition [4]: 7.09%
- inhibition [3]: 0.47%

SMILES: c1ccc2c(Cc3c[nH]c4ccccc34)c[nH]c2c1
- inhibition [4]: 4.61%
- inhibition [3]: 21.7%

SMILES: CN1CCc2cc3c(c4c2[C@H]1Cc1ccccc1-4)OCO3
- inhibition [4]: 34.2%
- inhibition [3]: 25.9%

SMILES: CC[C@@H]1/C=C/C=C/C[C@H](C)[C@H](O)[C@](C)(O)C(=O)[C@H](C)[C@@H](O)[C@H](C)C(=O)[C@H](C)[C@@H](O)[C@H](C)/C=C/C(=O)O[C@H]2[C@@H](C)[C@@H](CC1)O[C@@]1(CC[C@@H](C)[C@@H](C[C@H](C)O)O1)[C@@H]2C
- inhibition [4]: -5.62%
- inhibition [3]: 1.56%

SMILES: CC(C)=CC[C@@H](OC(=O)C=C(C)C)C1=CC(=O)c2c(O)ccc(O)c2C1=O
- inhibition [4]: 22.8%
- inhibition [3]: 6.03%

SMILES: C=C(C)[C@@H]1CC=C(C(=O)O)CC1
- inhibition [4]: -3.9%
- inhibition [3]: 3.58%

SMILES: O=C1C[C@@H](c2ccc(O)cc2)Oc2cc(O[C@@H]3O[C@H](CO)[C@@H](O)[C@H](O)[C@H]3O)cc(O)c21
- inhibition [4]: 18.7%
- inhibition [3]: -1.72%

SMILES: C[C@@H]1O[C@H](C[N+](C)(C)C)C[C@H]1O
- inhibition [4]: -6.43%
- inhibition [3]: -6.38%

SMILES: CC[C@@H](C(=O)[C@@H](C)[C@@H](O)[C@H](C)[C@@H]1O[C@@H]([C@@H](CC)C(=O)O)CC[C@@H]1C)[C@H]1O[C@]2(C=C[C@@H](O)[C@]3(CC[C@@](C)([C@H]4CC[C@](O)(CC)[C@H](C)O4)O3)O2)[C@H](C)C[C@@H]1C
- inhibition [4]: 4.25%
- inhibition [3]: 3.73%

SMILES: Cc1nccc2c1[nH]c1cc(O)ccc12
- inhibition [4]: 46.1%
- inhibition [3]: 35.9%

SMILES: O=C1C[C@@H]2OCC=C3CN4CC[C@]56c7ccccc7N1[C@H]5[C@H]2[C@H]3C[C@H]46
- inhibition [4]: 12.2%
- inhibition [3]: 32.4%

SMILES: CC(C)=CCC/C(C)=C/COc1ccc2ccc(=O)oc2c1
- inhibition [4]: -3.79%
- inhibition [3]: 1.5%

SMILES: CCN1C[C@]2(COC)CC[C@H](O)[C@@]34C5C[C@@H]6[C@@H](OC)C[C@](O)(C(CC23)C14)C5[C@H]6OC(C)=O (some centres not stated)
- inhibition [4]: 28.9%
- inhibition [3]: -0.23%

SMILES: O=C(O)C1=C[C@@H](O)[C@@H](O)[C@H](O)C1
- inhibition [4]: -8.33%
- inhibition [3]: -4.96%

SMILES: COc1cc2c3cc1Oc1c(OC)c(OC)cc4c1[C@@H](Cc1ccc(O)c(c1)Oc1ccc(cc1)C[C@@H]3N(C)CC2)N(C)CC4
- inhibition [4]: 11.4%
- inhibition [3]: 68.5%

SMILES: COC(=O)C1=CO[C@@H](C)[C@@H]2CN3CCc4c([nH]c5ccccc45)[C@@H]3C[C@H]12
- inhibition [4]: 22%
- inhibition [3]: 89.1%

SMILES: CC1(C)CCC[C@]2(C)[C@H]3CC(=O)O[C@]3(C)CC[C@@H]12
- inhibition [4]: -6.49%
- inhibition [3]: -1.03%

SMILES: CC(=O)O[C@H]1C(=O)[C@@]2(C)[C@H]([C@H](OC(=O)c3ccccc3)[C@]3(O)C[C@H](O)C(C)=C1C3(C)C)[C@]1(OC(C)=O)CO[C@@H]1C[C@@H]2O
- inhibition [4]: 27.8%
- inhibition [3]: 5.3%

SMILES: COc1cc(O)c2c(c1)oc(=O)c1c3cc(O)c(O)cc3oc21
- inhibition [4]: 11.8%
- inhibition [3]: 11.1%

SMILES: CN1[C@@H](CC(=O)c2ccccc2)CCC[C@H]1C[C@H](O)c1ccccc1
- inhibition [4]: -0.17%
- inhibition [3]: 30.4%

SMILES: O=c1cc(-c2ccc(O)cc2)oc2c([C@@H]3O[C@H](CO)[C@@H](O)[C@H](O)[C@H]3O)c(O)cc(O)c12
- inhibition [4]: 3.3%
- inhibition [3]: 2.26%

SMILES: O=c1c(O)c(-c2ccc(O)cc2O)oc2cc(O)cc(O)c12
- inhibition [4]: 18.1%
- inhibition [3]: -3.98%

SMILES: O=c1c(-c2ccc(O)cc2)coc2cc(O[C@@H]3O[C@H](CO)[C@@H](O)[C@H](O)[C@H]3O)cc(O)c12
- inhibition [4]: 24.6%
- inhibition [3]: 1.82%

SMILES: COc1cc([C@@H]2c3cc4c(cc3[C@H](O)[C@H]3COC(=O)[C@@H]23)OCO4)cc(OC)c1OC
- inhibition [4]: 27.1%
- inhibition [3]: -2.7%

SMILES: Cc1cc(O)c2c(=O)c3c(O)cc(O)c4c5c(O)cc(O)c6c(=O)c7c(O)cc(C)c8c1c2c(c34)c(c78)c65
- inhibition [4]: -7.15%
- inhibition [3]: 14.3%

SMILES: C=C(C)[C@@H]1[C@H]2OC(=O)[C@@H]1[C@]1(O)C[C@H]3O[C@]34C(=O)O[C@H]2[C@]14C
- inhibition [4]: 11.4%
- inhibition [3]: -3.55%

SMILES: O=C1CCC[C@@H]2[C@H]3CCCN4CCC[C@@H](CN12)[C@@H]34
- inhibition [4]: -1.14%
- inhibition [3]: 22.4%

SMILES: CC[C@@H]1C(=O)OC[C@@H]1Cc1cncn1C
- inhibition [4]: 20%
- inhibition [3]: 1.99%

SMILES: CCn1cc(C(=O)O)c(=O)c2ccc(C)nc21
- inhibition [4]: 0.82%
- inhibition [3]: -8.73%

SMILES: COC(=O)C[C@](O)(CCC(C)(C)O)C(=O)O[C@@H]1C(OC)=C[C@]23CCCN2CCc2cc4c(cc2[C@H]13)OCO4
- inhibition [4]: -5.71%
- inhibition [3]: 1.48%

SMILES: COc1cc(-c2oc3cc(O)cc(O)c3c(=O)c2O)ccc1O
- inhibition [4]: 5.76%
- inhibition [3]: -2.06%

SMILES: c1coc(CNc2ncnc3[nH]cnc23)c1
- inhibition [4]: -5.12%
- inhibition [3]: 3.13%

SMILES: CCCCC[C@H](O)CC(=O)CCc1ccc(O)c(OC)c1
- inhibition [4]: 1.06%
- inhibition [3]: -2.06%

SMILES: COc1cc(C(=O)OC2CC3CCC(C2)N3C)ccc1O (configuration not stated)
- inhibition [4]: 31.5%
- inhibition [3]: 6.73%
